From patent US5889028A, “Colonic delivery of nicotine to treat inflammatory bowel disease” (priority 1997, dated 1999)
“Also recorded” adds a separate entry of the source.

Tests used:
[1] = systemic cotinine; cited from earlier work
[2] = cited from earlier work
[3] = Example 1: side effects (questionnaire) versus plasma nicotine concentration; format: in vivo, human
Method: Intraindividual side effects occurred during each study, as determined by a questionnaire filled out every 30 minutes, closely correlated with plasma nicotine concentrations. However, the threshold above which symptoms appeared varied from individual to individual with the nicotine concentration at which side effects first appeared ranging from 2.4 ng/mL to 9.9 ng/mL (although some subjects had nicotine concentrations of >11 ng/mL without symptoms).

[4] = Example 1: nicotine pharmacokinetics after IV, oral and rectal enema administration in healthy volunteers
Method: Intravenous nicotine was prepared using a nicotine base, supplied as the tartrate salt (Fisher Scientific/Eastman Kodak Company, Rochester, N.Y.). Solutions for injection were made up by combining 1.5 mg nicotine base (4.44 mg tartrate salt) in 100 ml of 0.9% sterile normal saline to form a 15 mcg/mL solution. The intravenous solution was filtered through a 0.22 micron filter into a sterile container and under sterile conditions. The solution was then cultured for organisms, assayed for endotoxin, and chemically analyzed prior to infusion to assure stable nicotine concentration. These samples were then be stored in sealed vials until the time of administration.
Thirty paid human volunteers were admitted to the pharmacokinetic study after giving informed consent to a protocol approved by the institutional review board at the Mayo Clinic, Rochester, Minn. The subjects ranged in age from 21-56 and their body weights ranged from 45 to 153 Kg. […]
Each subject underwent 2 investigations (IV and non-IV) of 8 hours duration at least 1 week apart. […] Plasma concentrations of nicotine were determined by gas chromatography/mass spectrometry as described by Baskin et al. (Clin. Chem., 31:76-80 (1991)).
For this study, the maximum plasma nicotine concentration (Cmax) and the time to reach Cmax (Tmax) were defined as the highest measured plasma concentrations and the time of the sample, respectively.

[5] = in vivo
[6] = Benowitz et al., cited from earlier work
[7] = nicotine base; cited from earlier work
clinical = conditions: in vivo
[8] = gum and patch papers; cited from earlier work

Row | Structure (SMILES) | activity relative to nicotine [1] | effect on mucus ([2]; colonic mucus synthesis) | effect on rectal blood flow ([2]; patients with ulcerative colitis) | effect on mucosal production of eicosanoids ([2]; prostaglandin E, 6-keto-PGF1a, leukotrienes) | mucus thickness ([2]; rabbits, high doses, versus controls) | nicotine concentration without symptoms ([3]; some subjects) [ng/mL] | side effects observed ([3]; when side effects occurred, variable frequency) | bioavailability / tolerability in words [4] | combination with 5-ASA, sulphasalazine, corticosteroids or budesonide [5] | efficacy compared with high dosage transdermal patch [5] | remission (clinical response) [5] | mean bioavailability for the oral dose [6] | CLb ([6]; IV, heavy smokers) | T1/2 ([6]; IV, heavy smokers) | Vdss ([6]; IV, heavy smokers) | absorption through mucous membranes and skin [7] | Fa (clinical) [%] | general side effects of nicotine administration [8]
1 | CN1C(=O)CC[C@H]1c1cccnc1 [cotinine] | less active metabolite than nicotine | – | – | – | – | – | – | – | – | – | – | – | – | – | – | – | – | –
2 | CN1CCCC1c1cccnc1 (stereo not drawn) [nicotine] | – | appears to increase mucus synthesis to levels observed in healthy subjects | can reduce rectal blood flow to the normal range | appears to reduce mucosal production of eicosanoids | greater mucus thickness as compared to controls | > 11 | nausea, lightheadedness, and diaphoresis | low bioavailability and was well tolerated; also recorded: low or negligible bioavailability and was well tolerated | appears to show a synergistic effect | at least as efficacious as high dosage transdermal patch | up to 70% | 44 (9%) | 66 (8 L/hr) | 203 (61 min.) | 3.0 (0.7 L/Kg) | readily absorbed through mucous membranes and intact skin | ~20 | nausea, vomiting, headaches, insomnia, somnolence, diaphoresis, pre-syncope and tremor
